Holding throughout (assay): growth of human tumour cells (NCI), 48 h
Experiment [1] concerns MCF7 breast.
Experiment [2] relates to MDA-MB-231 breast.
Experiment [3] has as its system XF 498 CNS.
The test system of experiment [4] is SNB-78 CNS.
The test system of experiment [5] is HOP-18 NSCLC.
Experiment [6] relates to KM20L2 colon.
Experiment [7] deals with DMS 273 small cell lung.
For experiment [8], the system named is MDA-N.

This note sets out measurements from PubChem BioAssay (NCI).

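Five compound concentrations were applied to cells in 96-well plates for 48 hours; endpoints were derived by simple linear interpolation of the resulting dose-response curve. GI50 marks 50% less growth. At the TGI there is no net growth.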

On to `O=S(=O)(Nc1ccc(Br)cc1)c1ccc(-c2cnc(C3CC3)o2)cc1`, for which, in experiment [1], the GI50 was 0.651 µM and the TGI is 13.9 µM. Further, in experiment [2], the GI50 was 3.77 µM and the TGI was 17.8 µM.
With `COc1cc(Cl)cc(=O)c(O)c1OC`, the TGI in experiment [3], in experiment [4], in experiment [5], in experiment [6] and in experiment [7] was > 100 µM in each case.
On to `O=c1ncccn1[C@@H]1O[C@H](CO)[C@H](O)C1O` (some centres undefined), for which the TGI in experiment [3], in experiment [4], in experiment [5], in experiment [6] and in experiment [7] was > 100 µM each time.
Take `O=C(Nc1cccc(Cl)c1)Nn1cnnc1`: the TGI in experiment [8], in experiment [1] and in experiment [2] was > 100 µM each time. Also, the GI50 in experiment [1] and in experiment [2] was > 50 µM throughout.
For `C1CSCCCSCCCSCCCSCCCSCCCSCCCSCCCSC1`, the TGI in experiment [8], in experiment [1] and in experiment [2] was > 100 µM throughout.
In the case of `O=C(c1ccc2ccccc2c1)c1c(C(F)(F)F)n([O-])c2ccc(C(F)(F)F)cc2[n+]1=O`, in experiment [1], the GI50 was 0.392 µM and the TGI was 1.56 µM. In experiment [2], the GI50 is 1.48 µM and the TGI amounted to 2.95 µM.
`CCSC1=NC2C(N(CC)C(=O)N2CC)N1/N=C/C=C/c1ccccc1[N+](=O)[O-]` (centres undefined): the results for the GI50 in experiment [1] and in experiment [2] were 0.0415 µM and 0.312 µM, respectively. For the same compound, in experiment [1], the TGI was > 100 µM.
Turning to `CO/N=C(\COc1ccc2c(c1)[nH]c1ccccc12)c1ccc(OC)cc1`, in experiment [1], the GI50 is 49.8 µM and the TGI is > 100 µM. Also, in experiment [2], the GI50 was > 100 µM and the TGI is > 100 µM.
Regarding `O=C1/C(=C/c2ccc([N+](=O)[O-])cc2)CN(C(=O)CCN2CCC(=NO)CC2)C/C1=C\c1ccc([N+](=O)[O-])cc1`, the GI50 in experiment [1] is 0.431 µM; in experiment [2], 0.869 µM. The figures for the TGI in experiment [1] and in experiment [2] were 2.87 µM and 2.92 µM, respectively.
Regarding `O=C(/C=C/c1ccccc1)Oc1cccc2cccnc12`, the TGI in experiment [3] was 72.5 µM; in experiment [4], > 100 µM; in experiment [5], > 100 µM; in experiment [6], > 39.3 µM; in experiment [7], 45.6 µM.
Regarding `C=C(c1ccccc1)C1(O)CCCCC1N` (centres undefined), the TGI in experiment [3], in experiment [4], in experiment [5], in experiment [6] and in experiment [7] was > 100 µM each time.
As for `CCOC(=O)Oc1c(OC)cc(C(=O)c2ccc(OC)c(O)c2OC)cc1OC`, in experiment [1], the GI50 is 0.516 µM and the TGI was > 100 µM. Besides, in experiment [2], the GI50 was 3.31 µM and the TGI is > 100 µM.
Take `COc1ccc(-c2noc(C(=O)O)c2-c2cc(OC)c(OC)c(OC)c2)cc1`: in experiment [1], the GI50 is 1.34 µM and the TGI was > 100 µM. In experiment [2], the GI50 is 7.66 µM and the TGI was > 100 µM.
`C=CCc1c(Cl)nc(Cl)nc1Cl`: the TGI in experiment [8] turned out to be 0.116 µM; in experiment [1] it was 0.668 µM; in experiment [2], 1.82 µM.
Take `COc1cc(/C=C/C(=O)/C=C/c2cc(OC)c3c(c2)OCO3)cc2c1OCO2`: in experiment [2], the GI50 is 7.89 µM and the TGI is > 100 µM.
On to `c1ccc(C2ONC3=NCCN32)cc1` (centres undefined), for which the figures for the GI50 in experiment [1] and in experiment [2] were 55.9 µM and 37.2 µM, respectively. Also, the TGI in experiment [1] and in experiment [2] was > 100 µM throughout.
With `C=C1CCC2C3(C)COC(C)(C)OC3CCC2(C)C1C/C=C1/C(=O)OCC1OC(C)=O` (centres undefined), the GI50 was 1.76 µM in experiment [1] and 7.07 µM in experiment [2]. For the same compound, the results for the TGI in experiment [1] and in experiment [2] were 7.99 µM and 22.6 µM, respectively.
As to `CCN1C(=O)N(CC)C2C1NN=c1s/c(=C\c3ccc(Cl)cc3Cl)c(=O)n12` (centres undefined), the GI50 was 0.0322 µM in experiment [1] and 0.0336 µM in experiment [2]. Also, the results for the TGI in experiment [1] and in experiment [2] were > 43.4 µM and 4.79 µM, respectively.
Turning to `CCSCCCSCCSCC`, the TGI in experiment [8], in experiment [1] and in experiment [2] was > 100 µM throughout.
Regarding `Cc1c2cnccc2c(C)c2c1c1cc(C#N)ccc1n2C`, in experiment [1], the GI50 is 0.262 µM and the TGI was determined as 1.12 µM. In experiment [2], the GI50 was 0.237 µM and the TGI stood at 1.1 µM.
With `CNC(=S)Nc1ccc(OC)c2ccccc12`, the TGI in experiment [8], in experiment [1] and in experiment [2] was > 10 µM each time.
`CCCN1C(=O)NC(=O)C(CC)(N2C(=O)c3c(F)c(F)c(F)c(F)c3C2=O)C1=O` (centres undefined): the GI50 is 0.987 µM in experiment [1] and 1.99 µM in experiment [2]. Further, the TGI in experiment [1] was 4.06 µM; in experiment [2] it was 4.59 µM.
`N=C1C(O)C2(I)c3ccccc3N3C(=N)C(O)C4c5ccccc5N1C4C32` (centres undefined): the TGI is > 100 µM in experiment [8], > 100 µM in experiment [1] and 67.8 µM in experiment [2].
Consider `c1ccc(-c2nc(-c3ccccn3)nc(-c3ccccn3)n2)nc1`, for which, in experiment [1], the GI50 was 29.6 µM and the TGI was > 100 µM. Also, in experiment [2], the GI50 was 32.6 µM and the TGI is > 100 µM.
Consider `IC[P+]1(c2ccccc2)CCCC1`, for which the TGI in experiment [4], in experiment [5], in experiment [6] and in experiment [7] was > 100 µM throughout.
Take `N#CC(C#N)=C/C=C(\Cl)c1ccc(Cl)cc1`: in experiment [1], the GI50 was 14 µM and the TGI is > 100 µM. Further, in experiment [2], the GI50 was 2.54 µM and the TGI is 14 µM.
As to `COC(=O)C1=CO[C@@H](OC2CC(CO)C(O)C(O)C2O)[C@@H]2[C@@H](C)[C@@H](OC(=O)/C=C/c3ccccc3)[C@@H](O)[C@H]12` (some centres undefined) (tested in a mixture with another compound), the TGI in experiment [3], in experiment [5] and in experiment [6] was > 100 µM in each case.
